Measurements reported in patent publication US9636379B2, “Compositions and methods for treating pruritus” (Washington University, priority 2007, dated 2017).
Where no end group is shown, it is not given here.

What was measured:
5-HT fibers = assay: Morphine-induced scratching after 5,7-DHT; assay type: in vivo, mice; settings: vs saline vehicle
From the text: Repeated measures analysis of variance (ANOVA); *P<0.05, n=5-11.

GRPR [1] = assay type: in vivo; settings: GRPR mutant mice compared to wild-type mice
From the text: All data are presented as means±s.e.m.
FIG. 17A-C depicts scratching behavior induced by i.d. injection of histamine, endothelin-1 or 5-HT in GRPR mutant (black bars) and wild-type mice (white bars).
To ascertain whether GRPR is required for itch sensation, we studied the effects of several pruritogenic agents in GRPR mutant mice and wild-type mice.

NMBR/GRPR = assay type: in vivo; settings: NMBR/GRPR double knockout mice; for response to i.d. pruritogens: i.d. in 50 μl; for response to intrathecal bombesin-like peptides: GRP (1 nM), Bombesin (0.05 nM), NMB (2 nM)
Procedure: FIG. 44 depicts the itch behavior of NMBR/GRPR double knockout mice in response to 3 different bombesin-like peptides. […] GKO, GRPR mutant mice; DKO, NMBR/GRPR double KO mice.
(A), (C), (E), (G) and (I) are time course curve, while (B), (D), (F), (H) and (J) represent the total value comparisons from the same experiment. *p<0.05, **p<0.01; One-way ANOVA followed by Newman-Keuls post hoc test was used in all statistical analysis.
Histamine was injected i.d. in 50 μl at 20 μg/mouse. Compound 48/80 was injected i.d. in 50 μl at 20 μg/mouse. ET-1 was injected i.d. in 50 μl at 1 ng/mouse. […] Serotonin (5-HT) was injected i.d. in 50 μl at 1 1 nmol/μl.

NMBR = target: T1, NMBR (Mus musculus, UniProt O54799); assay: Effect of NMBR antagonist on NMB-, GRP- and chloroquine-evoked scratching; assay type: in vivo, mice
T1 construct: NMBR is expressed in the most superficial layer of the dorsal spinal cord; endogenous in cells; host or cells: living wild-type mice, spinal cord (intrathecal injection)
T1 sequence (O54799 1-390): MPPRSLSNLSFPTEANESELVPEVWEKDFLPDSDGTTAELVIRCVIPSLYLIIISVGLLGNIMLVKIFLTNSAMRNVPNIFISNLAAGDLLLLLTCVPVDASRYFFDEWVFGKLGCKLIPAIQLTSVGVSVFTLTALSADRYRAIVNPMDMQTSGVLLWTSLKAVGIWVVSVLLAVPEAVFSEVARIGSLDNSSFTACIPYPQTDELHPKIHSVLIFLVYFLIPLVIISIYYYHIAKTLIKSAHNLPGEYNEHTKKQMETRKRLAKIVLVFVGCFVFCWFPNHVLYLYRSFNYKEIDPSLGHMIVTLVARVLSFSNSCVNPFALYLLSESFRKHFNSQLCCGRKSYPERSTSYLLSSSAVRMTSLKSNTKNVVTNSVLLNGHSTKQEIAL
Procedure: (B) Dose response experiment depicting the NMB-evoked scratching behavior in wild type mice measured over 30 minutes after injection with 1 and 2 nmol of PD168268.
(A) Number of scratches over time. (B) Comparison of cumulative number of scratches of the results shown in (A). PD168268 was injected at 2 nmol/mouse 10 min before GRP 1 nmol/mouse. p<0.01 (p=0.0072), t test, when the data in first 5 min was compared.
(A) Number of scratches over time. (B) Comparison of cumulative number of scratches of the results shown in (A). […] One-way ANOVA followed by Newman-Keuls post hoc test.

VR1 vanilloid receptor [2] = target: T2, VR1 vanilloid receptor (Mus musculus, UniProt Q704Y3)
T2 sequence (Q704Y3 whole entry): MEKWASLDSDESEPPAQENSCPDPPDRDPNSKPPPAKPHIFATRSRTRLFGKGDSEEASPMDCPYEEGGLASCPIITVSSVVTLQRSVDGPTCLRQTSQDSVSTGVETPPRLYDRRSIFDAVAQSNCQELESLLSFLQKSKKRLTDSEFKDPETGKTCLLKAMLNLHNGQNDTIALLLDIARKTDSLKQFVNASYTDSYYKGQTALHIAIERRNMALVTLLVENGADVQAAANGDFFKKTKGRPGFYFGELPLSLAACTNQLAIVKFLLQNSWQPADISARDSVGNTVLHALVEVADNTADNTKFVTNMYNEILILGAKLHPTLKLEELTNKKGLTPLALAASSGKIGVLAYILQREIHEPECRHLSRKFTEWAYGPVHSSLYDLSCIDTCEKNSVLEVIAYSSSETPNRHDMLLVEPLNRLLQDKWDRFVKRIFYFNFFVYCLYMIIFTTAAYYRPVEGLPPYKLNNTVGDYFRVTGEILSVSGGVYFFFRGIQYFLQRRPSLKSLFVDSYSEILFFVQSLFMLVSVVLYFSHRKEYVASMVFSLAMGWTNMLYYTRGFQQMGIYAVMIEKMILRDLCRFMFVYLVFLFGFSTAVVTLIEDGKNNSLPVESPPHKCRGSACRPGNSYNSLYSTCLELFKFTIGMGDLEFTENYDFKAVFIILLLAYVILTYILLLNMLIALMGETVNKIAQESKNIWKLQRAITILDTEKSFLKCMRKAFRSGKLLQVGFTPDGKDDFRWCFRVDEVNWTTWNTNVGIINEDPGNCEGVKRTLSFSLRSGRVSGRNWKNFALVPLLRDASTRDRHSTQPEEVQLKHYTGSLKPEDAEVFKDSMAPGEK

VR1 vanilloid receptor [3] = target: T2, VR1 vanilloid receptor; assay: Depletion of primary fibers by intrathecal resiniferatoxin (immunocytochemistry); assay type: in vivo, mice; parameters: An approximate 80% of GRP+ neurons express TRPV1, a vanilloid receptor important for detecting thermal and chemical stimuli in the DRGs; endogenous in cells; host or cells: living mice, TRPV1+ primary afferent fibers (intrathecal RTX)
From the text: FIG. 32A-L depicts micrographs showing that peptidergic but not non-peptidergic fibers were depleted by resiniferatoxin (RTX) treatment. […] The IB4 positive non-peptidergic fibers remain the same after RTX treatment (C) compared with the control group (D). […] GRP+ fibers are almost lost in the RTX treated group (I) compared with the control group (J). TRPV1 staining is lost after RTX treatment (K) compared to the control group (L).
An approximate 80% of GRP+ neurons express TRPV1, a vanilloid receptor important for detecting thermal and chemical stimuli in the DRGs (FIG. 31). […] Non-peptidergic primary fibers labeled by IB4-FITC are normal (FIG. 32C, D). […] Motor function is not affected by the depletion of TRPV1+ primary fibers (FIG. 33B).
Mice were given resiniferatoxin (Sigma, 25 ng/5 ul) or vehicle intrathecally under isoflurane-induced anesthesia. The behavior was tested 3-5 days later.

GRPR [4] = target: T3, GRPR (Mus musculus, UniProt P21729); assay: Scratching induced by i.d. pruritogenic agents after i.t. GRPR antagonist; assay type: in vivo, mice; settings: i.t. antagonist 10 min before i.d. injection of each pruritogenic agent; vs saline control
T3 construct: GRP acts through spinal GRPR to mediate the transmission of information that drives scratching behavior; endogenous in cells; host or cells: living mice (C57BL/6J / wild-type littermates), spinal dorsal horn neurons reached by intrathecal injection
T3 sequence (P21729 whole entry): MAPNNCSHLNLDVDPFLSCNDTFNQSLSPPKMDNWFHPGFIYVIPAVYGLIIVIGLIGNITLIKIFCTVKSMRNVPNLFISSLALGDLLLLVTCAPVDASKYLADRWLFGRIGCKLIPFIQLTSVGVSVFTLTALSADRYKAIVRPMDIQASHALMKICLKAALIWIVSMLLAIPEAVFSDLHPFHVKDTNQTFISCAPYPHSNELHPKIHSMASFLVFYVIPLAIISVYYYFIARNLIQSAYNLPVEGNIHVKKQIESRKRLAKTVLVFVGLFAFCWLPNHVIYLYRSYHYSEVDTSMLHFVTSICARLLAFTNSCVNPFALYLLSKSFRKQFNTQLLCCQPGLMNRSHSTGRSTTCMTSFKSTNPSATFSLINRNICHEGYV

GRPR [5] = target: T3, GRPR; parameters: species or system mice; settings: in vivo
GRPR [6] = target: T3, GRPR; assay: Scratching behavior after intrathecal injection of GRPR agonist GRP18-27; assay type: in vivo, mice
Procedure: (§1) FIG. 7A-E depicts graphs showing the effect of GRPR agonist and antagonist on scratching behavior. (A) Scratching behavior is monitored after intrathecal (i.t.) injection of GRP18-27 (0.03, 0.1 or 1.0 nmol/5 μl). GRP18-27 induced dose-dependent scratching behavior in wild-type mice (n=7; open circles). […] ANOVA; **P<0.01. […] ANOVA; *P<0.05.
(§2) To determine whether an activation of GRPR in the spinal cord may facilitate the transmission of itch signals, which would subsequently result in increased scratching behavior, the GRPR agonist GRP18-27 was intrathecally administered (Ladenheim et al., 1996).

GRPR [7] = target: T3, GRPR; assay type: in vivo, mice
GRPR [8] = assay: Scratching behavior after intrathecal injection of GRPR agonist GRP18-27; assay type: in vivo, mice; settings: GRPR mutant mice compared with wild-type
Procedure: as §1, §2

[9] = three days after i.t. 25 ng/5 μl
[10] = antagonist 1.0 nmol i.t. vs vehicle

With `NCCc1c[nH]c2c(O)cc(O)cc12` [5,7-DHT] as the molecule, how does the morphine-induced scratching behavior (5-HT fibers) read?
The morphine-induced scratching behavior was “reduces, but does not eliminate scratching behavior”.

For `NCCc1c[nH]c2ccc(O)cc12` [5-HT, serotonin], which “scratching behavior induced by i.d. injection, GRPR mutant vs wild-type mice” value (from here on “scratching behavior induced … vs wild-type mice”) (GRPR [1]) is on record?
Its value is “normal scratching behaviors”.

And the “response to i.d. pruritogens” value (NMBR/GRPR)?
Its value is “deficits”.

`C[C@@](Cc1c[nH]c2ccccc12)(NC(=O)Nc1ccc([N+](=O)[O-])cc1)C(=O)NCC1(c2ccccn2)CCCCC1` [PD168268] was tested. Which GRP-induced scratching behaviors (NMBR; 2 nmol/mouse 10 min before GRP 1 nmol/mouse) did it give?
Its GRP-induced scratching behaviors is “inhibited”.

What about the NMB-induced scratching behaviors (NMBR; i.t. 1 or 2 nM/mouse 10 minutes before 2 nM/mouse of NMB, wild type mice) of the same molecule?
Its NMB-induced scratching behaviors is “inhibited”.

And the chloroquine-induced scratching behaviors (NMBR; i.t. 10 minutes before i.d. chloroquine 200 μg/mouse in 50 μL)?
Its chloroquine-induced scratching behaviors is “inhibited”.

`CCN(CC)CCCC(C)Nc1ccnc2cc(Cl)ccc12` (stereo not shown) [chloroquine] was tested. Which “response to i.d. pruritogens” value (NMBR/GRPR) did it give?
Its value is “deficits”.

What does the source list for `NCCc1c[nH]cn1` [histamine]?
scratching behavior induced by i.d. injection, GRPR mutant vs wild-type mice (GRPR [1]): either not significantly affected or modestly reduced; response to i.d. pruritogens (NMBR/GRPR): deficits

What does the source list for `C=C(C)[C@]12C[C@@H](C)[C@@]34O[C@](Cc5ccccc5)(O[C@@H]1[C@@H]3C=C(COC(=O)Cc1ccc(O)c(OC)c1)C[C@]1(O)C(=O)C(C)=C[C@@H]41)O2` [resiniferatoxin]?
motor function (rotarod) (VR1 vanilloid receptor [2]; after RTX treatment): not affected; tail-flick latency (VR1 vanilloid receptor [2]; after RTX treatment): significantly increased; morphine-induced scratching behavior (VR1 vanilloid receptor [2]; mouse, in vivo): significantly reduced; GRPR expression (VR1 vanilloid receptor [3]; after RTX treatment): remains normal; GRP+ fibers (VR1 vanilloid receptor [3]; [9]): almost depleted; PKCγ (LIIi layer) (VR1 vanilloid receptor [3]; [9]): remains normal; TRPV1 signal (VR1 vanilloid receptor [3]; [9]): almost lost; non-peptidergic primary fibers labeled by IB4-FITC (VR1 vanilloid receptor [3]; [9]): normal; peptidergic fibers labeled by CGRP (VR1 vanilloid receptor [3]; [9]): largely diminished

Which “scratching behavior induced by i.d. pruritogenic agents” value (GRPR [4]) does the source give for D-Phe-6-Bn(6-13)OMe here?
The value was “significant reduction of the scratching behavior”.

What about the “scratching induced by intrathecal morphine” value (GRPR [5]) of the same molecule?
Its value is “significantly blocked”.

What about the GRP18-27-induced scratching behavior (GRPR [6]; i.t. antagonist 1.0 nmol/2.5 μl, GRP18-27 1.0 nmol/2.5 μl, vs vehicle) of the same molecule?
Its GRP18-27-induced scratching behavior is “significantly inhibited”.

What about the mechanical thresholds (GRPR [7]; [10]) of the same molecule?
Its mechanical thresholds is “not significantly affected”.

And the tailflick latency (GRPR [7]; [10])?
The tailflick latency was “comparable”.

And the “analgesic effect of intrathecal morphine” value (GRPR [7]; morphine 0.3 nmol/5 μl, antagonist 1.0 nmol, vs vehicle)?
Its value is “not significantly affected”.

What does the source list for “GRP18-27: GRPR agonist, intrathecally administered”?
number of scratching behaviors after i.t. GRP18-27 (GRPR [8]): significantly lower; scratching behavior after i.t. GRP18-27 (GRPR [6]; wild-type mice, i.t. 0.03, 0.1 or 1.0 nmol/5 μl): increased scratching behavior was found in a dose-dependent manner

How did the “response to intrathecal bombesin-like peptides” value (NMBR/GRPR) turn out when “GRP: gastrin-releasing peptide, bombesin-like peptide given intrathecally (VPLPAGGGTVLTKMYPRGNHWAVGHLM; ends and bridges not checked; UniProt P07492 24-50, looked up)” was run?
The value was “deficits”.

For SLIGRL-NH2, which “scratching behavior induced … vs wild-type mice” value (GRPR [1]) is on record?
Its value is “significantly reduced”.

Which “scratching behavior induced … vs wild-type mice” value (GRPR [1]) does the source give for “endothelin-1: exerts its pruritic effect through ETA receptors” here?
The value was “normal scratching behaviors”.

What about the “response to i.d. pruritogens” value (NMBR/GRPR) of the same molecule?
The value was “deficits”.

With neuromedin B [NMB] as the molecule, how does the “response to intrathecal bombesin-like peptides” value (NMBR/GRPR) read?
Its value is “deficits”.
